# PubChem BioAssay (NCI)
#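 Five concentrations, 48 hours, 96-well plates. TGI marks complete inhibition of growth.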
# Key:
# Assay in all cases: NCI tumour cell line growth inhibition, 48 h
# [1] = test system: CCRF-CEM leukemia
# [2] = test system: IGROV1 ovarian
# [3] = test system: HL-60(TB) leukemia
# [4] = test system: DLD-1 colon
# [5] = test system: SK-MEL-5 melanoma
# [6] = test system: SNB-78 CNS
# [7] = test system: SR leukemia
# [8] = test system: MALME-3M melanoma
# [9] = test system: SK-MEL-28 melanoma
# [10] = test system: MOLT-4 leukemia
# [11] = test system: XF 498 CNS
# [12] = test system: TK-10 renal
# [13] = test system: HCC-2998 colon
# [14] = test system: COLO 205 colon
# [15] = test system: LXFL 529 NSCLC
# [16] = test system: U251 CNS
# [17] = test system: RXF 393 renal
# [18] = test system: ACHN renal
# [19] = test system: NCI-H460 lung
# [20] = test system: SN12C renal
# [21] = test system: OVCAR-8 ovarian
# [22] = test system: NCI-H226 lung
# [23] = test system: K-562 leukemia
# [24] = test system: SF-539 CNS
# [25] = test system: HT29 colon
# [26] = test system: UACC-257 melanoma
# [27] = test system: SW-620 colon
# [28] = test system: NCI-H23 lung
# [29] = test system: HOP-92 NSCLC
# [30] = test system: LOX IMVI melanoma
# [31] = test system: SF-295 CNS
# [32] = test system: HOP-18 NSCLC
# [33] = test system: HCT-15 colon
# [34] = test system: A498 renal
# [35] = test system: HCT-116 colon
# [36] = test system: SK-MEL-2 melanoma
# [37] = test system: RPMI-8226 leukemia
# [38] = test system: KM20L2 colon
# [39] = test system: SNB-75 CNS
# [40] = test system: A549 NSCLC
# [41] = test system: KM12 colon
# [42] = test system: SF-268 CNS
# [43] = test system: EKVX NSCLC
# [44] = test system: DMS 114 small cell lung
# [45] = test system: DMS 273 small cell lung
# [46] = test system: PC-3 prostate
# [47] = test system: MDA-N
# [48] = test system: HOP-62 NSCLC
# [49] = test system: SK-OV-3 ovarian
# [50] = test system: 786-0 renal
# [51] = test system: M14 melanoma
# [52] = test system: OVCAR-5 ovarian
# [53] = test system: OVCAR-3 ovarian
# [54] = test system: OVCAR-4 ovarian
# [55] = test system: UO-31 renal
# [56] = test system: BT-549 breast
# [57] = test system: SNB-19 CNS
# [58] = test system: T-47D breast
# [59] = test system: MDA-MB-435
# [60] = test system: DU-145 prostate
# [61] = test system: NCI-H522 lung
# [62] = test system: MDA-MB-231 breast
# [63] = test system: NCI/ADR-RES ovarian
# [64] = test system: UACC-62 melanoma
# [65] = test system: HS 578T breast
# [66] = test system: MCF7 breast
# [67] = test system: CAKI-1 renal
smiles,measurement,setting,value
c1ccc2c(c1)CCCC/C2=N/OCC1CO1 (centres undefined),TGI,[1],> 100 µM
same,TGI,[2],> 100 µM
same,TGI,[3],44.1 µM
same,TGI,[4],> 100 µM
same,TGI,[5],> 100 µM
same,TGI,[6],> 100 µM
same,TGI,[7],> 100 µM
same,TGI,[8],> 100 µM
same,TGI,[9],> 100 µM
same,TGI,[10],> 100 µM
same,TGI,[11],77.3 µM
same,TGI,[12],> 100 µM
same,TGI,[13],> 100 µM
same,TGI,[14],> 100 µM
same,TGI,[15],> 100 µM
same,TGI,[16],> 100 µM
same,TGI,[17],> 100 µM
same,TGI,[18],> 100 µM
same,TGI,[19],> 100 µM
same,TGI,[20],> 100 µM
same,TGI,[21],> 100 µM
same,TGI,[22],90.9 µM
same,TGI,[23],> 100 µM
same,TGI,[24],> 100 µM
same,TGI,[25],> 100 µM
same,TGI,[26],> 100 µM
same,TGI,[27],> 100 µM
same,TGI,[28],> 100 µM
same,TGI,[29],69.2 µM
same,TGI,[30],> 100 µM
same,TGI,[31],> 100 µM
same,TGI,[32],> 100 µM
same,TGI,[33],> 100 µM
same,TGI,[34],> 100 µM
same,TGI,[35],> 100 µM
same,TGI,[36],> 100 µM
same,TGI,[37],72.9 µM
same,TGI,[38],> 100 µM
same,TGI,[39],> 100 µM
same,TGI,[40],> 100 µM
same,TGI,[41],> 100 µM
same,TGI,[42],> 100 µM
same,TGI,[43],> 100 µM
same,TGI,[44],> 100 µM
same,TGI,[45],> 100 µM
O=C(O)CN(CC(=O)O)C(C(=O)O)c1ccccc1 (centres undefined),TGI,[46],> 100 µM
same,TGI,[47],> 100 µM
same,TGI,[48],> 100 µM
same,TGI,[49],> 100 µM
same,TGI,[1],> 100 µM
same,TGI,[2],> 100 µM
same,TGI,[3],> 100 µM
same,TGI,[5],> 100 µM
same,TGI,[7],> 100 µM
same,TGI,[50],> 100 µM
same,TGI,[8],> 100 µM
same,TGI,[9],> 100 µM
same,TGI,[10],> 100 µM
same,TGI,[51],> 100 µM
same,TGI,[52],> 100 µM
same,TGI,[53],> 100 µM
same,TGI,[54],> 100 µM
same,TGI,[55],> 100 µM
same,TGI,[12],> 100 µM
same,TGI,[13],> 100 µM
same,TGI,[56],> 100 µM
same,TGI,[57],> 100 µM
same,TGI,[14],> 100 µM
same,TGI,[16],> 100 µM
same,TGI,[17],> 100 µM
same,TGI,[18],> 100 µM
same,TGI,[19],> 100 µM
same,TGI,[20],> 100 µM
same,TGI,[21],> 100 µM
same,TGI,[22],> 100 µM
same,TGI,[23],> 100 µM
same,TGI,[24],> 100 µM
same,TGI,[25],> 100 µM
same,TGI,[26],> 100 µM
same,TGI,[27],> 100 µM
same,TGI,[28],> 100 µM
same,TGI,[58],> 100 µM
same,TGI,[29],> 100 µM
same,TGI,[30],> 100 µM
same,TGI,[31],> 100 µM
same,TGI,[59],> 100 µM
same,TGI,[60],> 100 µM
same,TGI,[61],> 100 µM
same,TGI,[33],> 100 µM
same,TGI,[62],> 100 µM
same,TGI,[34],> 100 µM
same,TGI,[35],> 100 µM
same,TGI,[36],> 100 µM
same,TGI,[37],> 100 µM
same,TGI,[39],> 100 µM
same,TGI,[63],> 100 µM
same,TGI,[40],> 100 µM
same,TGI,[64],> 100 µM
same,TGI,[41],> 100 µM
same,TGI,[42],> 100 µM
same,TGI,[43],> 100 µM
same,TGI,[65],> 100 µM
same,TGI,[66],> 100 µM
same,TGI,[67],> 100 µM
